Read-outs that look alike come from different tables or passages of the source.
Columns and labels:
LNCaP cells = assay: LNCaP cell viability assay (CellTiter-Glo); type: cell-based; conditions: Homo sapiens, 72 h, LNCaP prostate cancer cell viability inhibition, 3 days
Summary of the method: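 Three-day treatment of LNCaP cells (5000 per well) across a 12-point, 3-fold dilution series starting at 10 μM. ATP luminescence (CellTiter-Glo) relative to untreated controls gave dose-response curves fitted nonlinearly for IC50.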

P300 = P300 (Homo sapiens, UniProt Q09472); assay: Immunoblotting of P300 protein levels in LNCaP or 22RV1 cells; type: cell-based; set-up: LNCaP or 22RV1 cells that express CBP/P300 proteins were treated with GNE-781 or the bivalent compounds; endogenous in cells; host or cells: LNCaP (clone FGC) or 22RV1 cells; conditions: read-out: Degradation (10 nM)
Chain of P300 (Q09472 whole entry): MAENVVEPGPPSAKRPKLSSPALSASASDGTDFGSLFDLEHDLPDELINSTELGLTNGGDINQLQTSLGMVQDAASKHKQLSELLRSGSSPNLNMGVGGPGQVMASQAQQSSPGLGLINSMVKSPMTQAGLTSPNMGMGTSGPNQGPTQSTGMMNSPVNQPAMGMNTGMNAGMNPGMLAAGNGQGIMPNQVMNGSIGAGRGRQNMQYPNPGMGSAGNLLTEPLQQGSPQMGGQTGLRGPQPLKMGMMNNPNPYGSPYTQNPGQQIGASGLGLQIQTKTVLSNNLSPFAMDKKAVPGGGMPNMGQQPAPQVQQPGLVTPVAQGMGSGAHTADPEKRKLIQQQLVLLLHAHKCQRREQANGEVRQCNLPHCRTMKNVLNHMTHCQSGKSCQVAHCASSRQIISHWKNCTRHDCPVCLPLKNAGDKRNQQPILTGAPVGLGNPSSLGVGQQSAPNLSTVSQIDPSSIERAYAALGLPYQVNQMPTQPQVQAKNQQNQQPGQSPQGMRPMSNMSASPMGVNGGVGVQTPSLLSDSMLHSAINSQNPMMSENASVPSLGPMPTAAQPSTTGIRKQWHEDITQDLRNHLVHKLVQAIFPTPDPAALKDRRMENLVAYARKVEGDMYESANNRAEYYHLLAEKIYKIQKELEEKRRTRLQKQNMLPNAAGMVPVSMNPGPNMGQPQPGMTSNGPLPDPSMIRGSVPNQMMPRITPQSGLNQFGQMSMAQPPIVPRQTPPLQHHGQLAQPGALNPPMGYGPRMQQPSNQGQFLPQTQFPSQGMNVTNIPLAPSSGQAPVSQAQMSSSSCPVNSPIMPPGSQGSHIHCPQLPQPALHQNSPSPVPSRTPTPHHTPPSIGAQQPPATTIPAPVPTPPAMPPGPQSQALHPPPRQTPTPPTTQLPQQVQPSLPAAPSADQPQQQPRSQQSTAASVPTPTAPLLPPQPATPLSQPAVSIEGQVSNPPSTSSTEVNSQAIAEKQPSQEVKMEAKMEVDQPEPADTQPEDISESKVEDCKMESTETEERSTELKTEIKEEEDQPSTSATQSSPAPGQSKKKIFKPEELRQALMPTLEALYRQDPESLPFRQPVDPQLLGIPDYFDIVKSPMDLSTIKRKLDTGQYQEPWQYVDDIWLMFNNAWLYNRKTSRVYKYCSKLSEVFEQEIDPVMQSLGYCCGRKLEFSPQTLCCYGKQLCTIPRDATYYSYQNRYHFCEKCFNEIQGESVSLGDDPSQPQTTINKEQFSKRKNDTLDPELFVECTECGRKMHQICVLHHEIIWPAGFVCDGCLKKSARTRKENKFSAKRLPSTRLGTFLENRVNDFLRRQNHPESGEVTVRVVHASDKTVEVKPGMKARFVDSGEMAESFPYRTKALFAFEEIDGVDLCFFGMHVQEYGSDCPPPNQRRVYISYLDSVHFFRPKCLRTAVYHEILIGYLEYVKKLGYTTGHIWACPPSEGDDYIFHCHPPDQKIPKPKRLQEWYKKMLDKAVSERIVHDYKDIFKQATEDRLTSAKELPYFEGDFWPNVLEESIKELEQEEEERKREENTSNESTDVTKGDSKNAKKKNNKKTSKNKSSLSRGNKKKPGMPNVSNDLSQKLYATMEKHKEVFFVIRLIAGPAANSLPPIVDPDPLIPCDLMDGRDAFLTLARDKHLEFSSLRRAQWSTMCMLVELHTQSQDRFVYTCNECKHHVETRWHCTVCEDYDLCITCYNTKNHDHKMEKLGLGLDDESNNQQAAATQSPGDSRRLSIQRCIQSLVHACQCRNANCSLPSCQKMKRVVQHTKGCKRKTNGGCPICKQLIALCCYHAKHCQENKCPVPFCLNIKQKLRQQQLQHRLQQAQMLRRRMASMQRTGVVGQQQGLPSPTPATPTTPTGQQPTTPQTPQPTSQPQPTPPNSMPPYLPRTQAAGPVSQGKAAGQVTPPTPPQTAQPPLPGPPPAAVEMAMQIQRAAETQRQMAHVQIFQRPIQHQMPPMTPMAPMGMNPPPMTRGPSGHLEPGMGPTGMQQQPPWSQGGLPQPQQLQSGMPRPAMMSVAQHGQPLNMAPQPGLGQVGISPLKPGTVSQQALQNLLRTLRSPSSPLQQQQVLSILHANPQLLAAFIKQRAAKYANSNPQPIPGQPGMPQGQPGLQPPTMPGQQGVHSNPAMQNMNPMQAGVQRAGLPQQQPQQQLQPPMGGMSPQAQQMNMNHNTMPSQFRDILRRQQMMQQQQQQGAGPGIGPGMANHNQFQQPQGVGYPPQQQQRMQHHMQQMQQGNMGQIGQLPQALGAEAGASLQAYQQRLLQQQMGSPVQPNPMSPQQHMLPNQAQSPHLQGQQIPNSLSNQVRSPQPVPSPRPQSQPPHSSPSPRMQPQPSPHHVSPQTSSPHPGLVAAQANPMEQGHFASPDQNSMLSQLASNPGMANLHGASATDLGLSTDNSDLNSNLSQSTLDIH
Summary of the method: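 P300/CBP levels quantified by chemiluminescent immunoblot band densitometry, normalized against tubulin or vinculin loading controls. Lysates came from LNCaP or 22RV1 cells exposed to compounds or DMSO vehicle for indicated times.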

[1] = percentage of inhibition of p300 at 10 nM (Table 2)
[2] = percentage of inhibition of p300 at 10 nM (Table 3)

IC50 (LNCaP cells; CellTiter-Glo (Table 2))	inhibition at 0.01 µM (P300; [1])	IC50 (LNCaP cells; CellTiter-Glo (Table 3))	inhibition at 0.01 µM (P300; [2])	Compound
0.601 µM	< 20%	–	–	CNC(=O)N1CCc2c(c(N3CCCc4cc(-c5cnn(CC(=O)NCCOCCOCCOCCOCCOCCNc6ccc7c(c6)C(=O)N(C6CCC(=O)NC6=O)C7=O)c5)c(C(F)F)cc43)nn2C2CCOCC2)C1 (stereo not shown) [P-032, 3-(7-(Difluoromethyl)-6-(1-(20-((2-(2,6-dioxopiperidin-3-yl)-1,3-dioxoisoindolin-5-yl)amino)-2-oxo-6,9,12,15,18-pentaoxa-3-azaicosyl)-1H-pyrazol-4-yl)-3,4-dihydroquinolin-1(2H)-yl)-N-methyl-1-(tetrahydro-2H-pyran-4-yl)-1,4,6,7-tetrahydro-5H-pyrazolo[4,3-c]pyridine-5-carboxamide]
–	–	0.0034 µM	20 to 50%	CC(=O)N1CCc2c(c(N3CCCc4cc(-c5cnn(C)c5)c(C(F)F)cc43)nn2C2CCN(CCc3ccc(COc4cccc5c4CN(C4CCC(=O)NC4=O)C5=O)cc3)CC2)C1 (stereo not shown) [P-173, 3-(4-((4-(2-(4-(5-acetyl-3-(7-(difluoromethyl)-6-(1-methyl-1H-pyrazol-4-yl)-3,4-dihydroquinolin-1(2H)-yl)-4,5,6,7-tetrahydro-1H-pyrazolo[4,3-c]pyridin-1-yl)piperidin-1-yl)ethyl)benzyl)oxy)-1-oxoisoindolin-2-yl)piperidine-2,6-dione]
–	–	0.0275 µM	< 20%	CNC(=O)N1CCc2c(c(N3CCCc4cc(-c5cnn(C)c5)c(C(F)F)cc43)nn2C2CCN(C(=O)CCOCCNc3cccc4c3C(=O)N(C3CCC(=O)NC3=O)C4=O)CC2)C1 (stereo not shown) [P-051, 3-(7-(Difluoromethyl)-6-(1-methyl-1H-pyrazol-4-yl)-3,4-dihydroquinolin-1(2H)-yl)-1-(1-(3-(2-((2-(2,6-dioxopiperidin-3-yl)-1,3-dioxoisoindolin-4-yl)amino)ethoxy)propanoyl)piperidin-4-yl)-N-methyl-1,4,6,7-tetrahydro-5H-pyrazolo[4,3-c]pyridine-5-carboxamide]
–	–	0.0252 µM	> 80%	CNC(=O)N1CCc2c(c(N3CCCc4cc(-c5cnn(C)c5)c(C(F)F)cc43)nn2C2CCN(C(=O)CCCCC#Cc3cccc4c3CN(C3CCC(=O)NC3=O)C4=O)CC2)C1 (stereo not shown) [P-093, 3-(7-(difluoromethyl)-6-(1-methyl-1H-pyrazol-4-yl)-3,4-dihydroquinolin-1(2H)-yl)-1-(1-(7-(2-(2,6-dioxopiperidin-3-yl)-1-oxoisoindolin-4-yl)hept-6-ynoyl)piperidin-4-yl)-N-methyl-1,4,6,7-tetrahydro-5H-pyrazolo[4,3-c]pyridine-5-carboxamide]
–	–	0.0766 µM	< 20%	CNC(=O)N1CCc2c(c(N3CCCc4cc(-c5cnn(C)c5)c(C(F)F)cc43)nn2C2CCN(C(=O)CCCC(=O)N[C@H](C(=O)N3C[C@H](O)C[C@H]3C(=O)NCc3ccc(-c4scnc4C)cc3)C(C)(C)C)CC2)C1 [P-057, 3-(7-(Difluoromethyl)-6-(1-methyl-1H-pyrazol-4-yl)-3,4-dihydroquinolin-1(2H)-yl)-1-(1-(5-(((S)-1-((2S,4R)-4-hydroxy-2-((4-(4-methylthiazol-5-yl)benzyl)carbamoyl)pyrrolidin-1-yl)-3,3-dimethyl-1-oxobutan-2-yl)amino)-5-oxopentanoyl)piperidin-4-yl)-N-methyl-1,4,6,7-tetrahydro-5H-pyrazolo[4,3-c]pyridine-5-carboxamide]
0.397 µM	< 20%	–	–	CNC(=O)N1CCc2c(c(N3CCCc4cc(-c5cnn(CC(=O)NCCCCNc6cccc7c6C(=O)N(C6CCC(=O)NC6=O)C7=O)c5)c(C(F)F)cc43)nn2C2CCOCC2)C1 (stereo not shown) [P-039, 3-(7-(Difluoromethyl)-6-(1-(2-((4-((2-(2,6-dioxopiperidin-3-yl)-1,3-dioxoisoindolin-4-yl)amino)butyl)amino)-2-oxoethyl)-1H-pyrazol-4-yl)-3,4-dihydroquinolin-1(2H)-yl)-N-methyl-1-(tetrahydro-2H-pyran-4-yl)-1,4,6,7-tetrahydro-5H-pyrazolo[4,3-c]pyridine-5-carboxamide]
0.0357 µM	50 to 80%	–	–	CNC(=O)N1CCc2c(c(N3CCCc4cc(-c5cnn(C)c5)c(C(F)F)cc43)nn2C2CCN(C(=O)CCCNc3ccc4c(c3)C(=O)N(C3CCC(=O)NC3=O)C4=O)CC2)C1 (stereo not shown) [P-003, 3-(7-(Difluoromethyl)-6-(1-methyl-1H-pyrazol-4-yl)-3,4-dihydroquinolin-1(2H)-yl)-1-(1-(4-((2-(2,6-dioxopiperidin-3-yl)-1,3-dioxoisoindolin-5-yl)amino)butanoyl)piperidin-4-yl)-N-methyl-1,4,6,7-tetrahydro-5H-pyrazolo[4,3-c]pyridine-5-carboxamide]
–	–	0.402 µM	20 to 50%	CNC(=O)N1CCc2c(c(N3CCCc4cc(-c5cnn(C)c5)c(C(F)F)cc43)nn2C2CCN(C(=O)CCCCNc3cccc4c3n(C)c(=O)n4C3CCC(=O)NC3=O)CC2)C1 (stereo not shown) [P-127, 3-(7-(Difluoromethyl)-6-(1-methyl-1H-pyrazol-4-yl)-3,4-dihydroquinolin-1(2H)-yl)-1-(1-(5-((1-(2,6-dioxopiperidin-3-yl)-3-methyl-2-oxo-2,3-dihydro-1H-benzo[d]imidazol-4-yl)amino)pentanoyl)piperidin-4-yl)-N-methyl-1,4,6,7-tetrahydro-5H-pyrazolo[4,3-c]pyridine-5-carboxamide]
–	–	0.156 µM	< 20%	CC(=O)N1CCc2c(c(N3CCCc4cc(-c5cnn(C)c5)c(C(F)F)cc43)nn2C2CCN(C(=O)CN3CCC(COc4cccc5c4C(=O)N(C4CCC(=O)NC4=O)C5=O)CC3)CC2)C1 (stereo not shown) [P-168, 4-((1-(2-(4-(5-Acetyl-3-(7-(difluoromethyl)-6-(1-methyl-1H-pyrazol-4-yl)-3,4-dihydroquinolin-1(2H)-yl)-4,5,6,7-tetrahydro-1H-pyrazolo[4,3-c]pyridin-1-yl)piperidin-1-yl)-2-oxoethyl)piperidin-4-yl)methoxy)-2-(2,6-dioxopiperidin-3-yl)isoindoline-1,3-dione]
0.578 µM	< 20%	–	–	CNC(=O)N1CCc2c(c(N3CCCc4cc(-c5cnn(CC(=O)NCCOCCOCCNc6ccc7c(c6)C(=O)N(C6CCC(=O)NC6=O)C7=O)c5)c(C(F)F)cc43)nn2C2CCOCC2)C1 (stereo not shown) [P-029]
0.234 µM	< 20%	–	–	CNC(=O)N1CCc2c(c(N3CCCc4cc(-c5cnn(CC(=O)NCCCCCCCCCC(=O)NC(C(=O)N6C[C@H](O)C[C@H]6C(=O)NCc6ccc(-c7scnc7C)cc6)C(C)(C)C)c5)c(C(F)F)cc43)nn2C2CCOCC2)C1 (stereo in doubt) [P-049, 3-(7-(Difluoromethyl)-6-(1-(2-((10-(((S)-1-((2S,4R)-4-hydroxy-2-((4-(4-methylthiazol-5-yl)benzyl)carbamoyl)pyrrolidin-1-yl)-3,3-dimethyl-1-oxobutan-2-yl)amino)-10-oxodecyl)amino)-2-oxoethyl)-1H-pyrazol-4-yl)-3,4-dihydroquinolin-1(2H)-yl)-N-methyl-1-(tetrahydro-2H-pyran-4-yl)-1,4,6,7-tetrahydro-5H-pyrazolo[4,3-c]pyridine-5-carboxamide]
> 10 µM	< 20%	–	–	CNC(=O)N1CCc2c(c(N3CCCc4cc(-c5cnn(CC(=O)NCCNc6cccc7c6C(=O)N(C6CCC(=O)NC6=O)C7=O)c5)c(C(F)F)cc43)nn2C2CCOCC2)C1 (stereo not shown) [P-037, 3-(7-(Difluoromethyl)-6-(1-(2-((2-((2-(2,6-dioxopiperidin-3-yl)-1,3-dioxoisoindolin-4-yl)amino)ethyl)amino)-2-oxoethyl)-1H-pyrazol-4-yl)-3,4-dihydroquinolin-1(2H)-yl)-N-methyl-1-(tetrahydro-2H-pyran-4-yl)-1,4,6,7-tetrahydro-5H-pyrazolo[4,3-c]pyridine-5-carboxamide]
–	–	0.0038 µM	> 80%	CNC(=O)N1CCc2c(c(N3CCCc4cc(-c5cnn(C)c5)c(C(F)F)cc43)nn2C2CCN(C(=O)CCCCCCc3cccc4c3C(=O)N(C3CCC(=O)NC3=O)C4=O)CC2)C1 (stereo not shown) [P-085, 3-(7-(difluoromethyl)-6-(1-methyl-1H-pyrazol-4-yl)-3,4-dihydroquinolin-1(2H)-yl)-1-(1-(7-(2-(2,6-dioxopiperidin-3-yl)-1,3-dioxoisoindolin-4-yl)heptanoyl)piperidin-4-yl)-N-methyl-1,4,6,7-tetrahydro-5H-pyrazolo[4,3-c]pyridine-5-carboxamide]
–	–	0.0121 µM	> 80%	CNC(=O)N1CCc2c(c(N3CCCc4cc(-c5cnn(C)c5)c(C(F)F)cc43)nn2C2CCN(C(=O)CN3CCC(CCc4cccc5c4C(=O)N(C4CCC(=O)NC4=O)C5=O)CC3)CC2)C1 (stereo not shown) [P-104, 3-(7-(difluoromethyl)-6-(1-methyl-1H-pyrazol-4-yl)-3,4-dihydroquinolin-1(2H)-yl)-1-(1-(2-(4-(2-(2-(2,6-dioxopiperidin-3-yl)-1,3-dioxoisoindolin-4-yl)ethyl)piperidin-1-yl)acetyl)piperidin-4-yl)-N-methyl-1,4,6,7-tetrahydro-5H-pyrazolo[4,3-c]pyridine-5-carboxamide]
